# Laboratory results: PubChem BioAssay AID743417 (Broad Institute, 2014)
# Values joined by “and” are separate entries in the source; they are usually repeats but may differ in a detail not shown here. Equal values may be shown once. Records with an inconclusive call do not appear. Active and inactive are the calls of the source.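 Rule for the calls: active = compounds lowering the luciferase signal with a fitted half-maximal dose at most twice their top valid dose (cut at about 30 µM in these data); inconclusive = flat fits with moderate signal loss, or poor fits; inactive = the rest.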
# Tested on: Clone20 osteoblast Shn3 3'UTR firefly luciferase, 24 h
# Assay: Schnurri-3 3'UTR-luciferase signal suppressors – cell-based, Clone20 osteoblasts, luminescence, dry powder, set 2, dose response (AID 743417)
row,Structure (SMILES),AC50
1,CCOC(=O)c1nc(S(C)(=O)=O)ncc1Cl,6.37 µM
2,Cc1ccc(C(C)C)cc1NC(=O)Nc1ccc([N+](=O)[O-])cc1,7.19 µM
3,CCOc1cc(/C=C\[N+](=O)[O-])ccc1OCC(=O)Nc1ccccc1C,< 0.26 µM
4,O=C(Nc1ccc(F)cc1)c1nc(S(=O)(=O)Cc2ccccc2)ncc1Cl,3.38 µM
5,Cc1ccc(CNC(=O)CSc2c3c(nc4ccc(Cl)cc24)CCCC3)o1,5.98 µM
6,COc1ccc(Cl)cc1N/C(N)=N/c1nc(CSc2ccc(C)cc2)cc(=O)[nH]1,1.82 µM
7,Cc1cccc(NS(=O)(=O)c2ccc(C3CCCCC3)cc2)c1,5.13 µM
8,CCOC(=O)/C(=C\c1ccc([N+](=O)[O-])cc1)C(=O)c1cc(C(C)=O)c(Nc2ccccc2)s1,2.47 µM
9,O=C(Cc1ccc(Cl)cc1Cl)Nc1ccncc1,2.56 µM
10,CCN(CC)C(=O)c1oc2ccc(S(=O)(=O)N3CC(C)CC(C)C3)cc2c1C (configuration not stated),1.02 µM
11,COc1ccc(CNC(=O)C(C)n2ccc3cc(S(=O)(=O)N4CCCCCC4)ccc32)cc1 (configuration not stated),0.518 µM
12,CCOc1cc(/C=C2/C(=O)ON=C2C)ccc1OCc1ccccc1F,6.95 µM
13,CCCCOc1ccc(Br)cc1CSC(=N)N,1.37 µM
14,c1ccc2c(-c3[nH]ncc3CNCCCn3ncc4ccccc43)cccc2c1,3.25 µM
15,CCCCNc1cccc2c1S(=O)(=O)N(CCCC)CC(COCc1ccccc1)O2 (configuration not stated),8.93 µM
16,O=C(/C=C1\C(=O)Nc2ccccc21)/C=C1\C(=O)Nc2ccccc21,9.5 µM
17,NS(=O)(=O)c1ccc(CCNCc2cc(Br)ccc2OCc2ccccc2)cc1,2.92 µM
18,CCc1ccc(NC(=O)C2CCN(S(=O)(=O)c3ccc4c(c3)NC(=O)C(C)S4)CC2)cc1 (configuration not stated),7.08 µM
19,O=C(Nc1cccc(C(F)(F)F)c1)c1sc(Cl)nc1C(F)(F)F,9.06 µM
20,CC(C)(C)c1ccc(C(O)CCCN2CCC(C(O)(c3ccccc3)c3ccccc3)CC2)cc1 (configuration not stated),16.7 µM
21,CC(Oc1ccc(Cl)cc1Cl)c1nc(-c2ccc(NC(=O)c3ccncc3)cc2)no1 (configuration not stated),3.93 µM
22,CCCC(=O)NC(c1ccc(Cl)cc1)c1ccc2cccnc2c1O (configuration not stated),0.937 µM

row,Structure (SMILES),AC50
1,CC(C)(C)[C@@H]1COC(=O)[C@@H](NC(=O)OCC2c3ccccc3-c3ccccc32)C/C=C\C[C@@H](CC(=O)NCCO)C(=O)N1,22.1 µM
2,O=C(Nc1nc(-c2ccccn2)cs1)C1COc2ccccc2O1 (configuration not stated),5.81 µM
3,O=C1OC[C@H](Cc2ccc3c(c2)OCO3)/C1=C\c1ccc2c(c1)OCO2,2.66 µM
4,Cn1cccc1C(=O)NC(=O)COC(=O)c1ccc(S(C)(=O)=O)c([N+](=O)[O-])c1,15.1 µM
5,O=C(NCc1cccc(Cl)c1)c1cc(COc2ccc3ncccc3c2)on1,3.05 µM
6,Cc1cccc(C)c1-n1nnnc1C(c1cc2ccccc2o1)N1CCC(n2c(=O)[nH]c3ccccc32)CC1 (configuration not stated),3.05 µM
7,Oc1c(CN2CCCCC2)cc(COCc2ccccc2)c2cccnc12,0.537 µM
8,Cc1ccccc1C(=O)NC(=S)Nc1ccc(N2CCN(C(=O)c3ccccc3)CC2)cc1,1.88 µM
9,C[C@@H]1CCCCO[C@H](CN(C)Cc2ccccc2)[C@@H](C)CN([C@H](C)CO)C(=O)c2cc(NC(=O)c3ccccc3)ccc2O1,31.3 µM
10,O=C(NNC(=O)c1cccnc1SCc1cccc([N+](=O)[O-])c1)c1ccccn1,1.9 µM
11,O=[N+]([O-])c1cccc(S(=O)(=O)NCc2ccncc2)c1,3.09 µM
12,Cc1cccc(Cn2c(NCCO)nc3c2c(=O)n(C)c(=O)n3C)c1,0.528 µM
13,Cc1ccc(C(=O)Nc2cccc3[nH]c(C(F)(F)F)nc23)cc1,3.93 µM
14,COc1ccc(-c2cc(C(F)(F)F)nc(S(C)(=O)=O)n2)cc1,4.46 µM
15,Cc1ccc(NC(=O)c2cc3ccccc3oc2=O)cc1S(=O)(=O)N(C)C,1.29 µM
16,CCC(C)C(NC(=O)CCCNC(=O)CCC(=O)OC1O[C@H]2OC3(C)CC[C@H]4[C@H](C)CCC(C1C)C24OO3)C(=O)O (some centres not stated),1.02 µM
17,Cc1ccc(Nc2c(-c3ccccn3)nc3cccc(C)n23)cc1,1.9 µM
18,O=C(CN1CCCC1c1cccs1)Nc1cc(S(=O)(=O)N2CCCCC2)ccc1Cl (configuration not stated),14.4 µM
19,COc1ccc(CNc2ncnc3sccc23)cc1,1.66 µM
20,O=C(/C=C/Nc1ccccc1Br)c1ccccn1,1.8 µM
21,COc1ccc(C(NC(C)=O)c2cc(Cl)c3cccnc3c2O)cc1 (configuration not stated),1.61 µM
22,O=C(CSc1nnc(-c2ccc(Cl)cc2Cl)n1C1CCCCC1)N1CCCC1,> 70 µM (inactive)

row,Structure (SMILES),AC50
1,O=C(Nc1nc2ccccc2s1)C1CCN(S(=O)(=O)c2cc([N+](=O)[O-])ccc2Cl)CC1,3.07 µM
2,CCC(=O)OCCNc1cc(Sc2nc3ccccc3[nH]2)c2nonc2c1[N+](=O)[O-],1.09 µM
3,O=C(Nc1ccncc1)c1ccc(Cl)c(S(=O)(=O)N2CCc3ccccc32)c1,3.19 µM
4,CCCOc1ccc(C(=O)C(CN2CCCC2)c2ccccc2)cc1 (configuration not stated),4.84 µM
5,Cc1sc2ncnc(NCC(C)(C)N3CCOCC3)c2c1C,1.36 µM
6,COc1ccc(OC)c(/C=C/C(=O)N2C(=O)c3cccc(N)c3C2=O)c1,3.25 µM
7,CCOC(=O)c1ccc(NC(=O)c2nc(S(=O)(=O)Cc3ccccc3)ncc2Cl)cc1,0.572 µM
8,Cc1ccc2[nH]c3c(N4CCc5ccccc5C4)ncnc3c2c1,1.18 µM
9,O=C(c1ccccc1)C(CCC(CN1CCOCC1)C(=O)c1ccccc1)CN1CCOCC1 (configuration not stated),12.8 µM
10,CCOC(=O)c1c(NC(=O)c2nn(CC)cc2Br)sc(C)c1C,11 µM
11,CCCC(=O)NC(c1ccccc1Cl)c1ccc2cccnc2c1O (configuration not stated),1.21 µM
12,O=C(Nc1ccccc1)C1=C(c2ccccc2)S(=O)(=O)CCS1(=O)=O,1.37 µM
13,CCOc1cccc(CNCCc2c(C)[nH]c3ccc(OC(F)(F)F)cc23)c1O,0.611 µM
14,CCOC(=O)C1(Cc2ccc(Cl)cc2)CCN(C(C)Cc2ccc(O)c(OC)c2)CC1 (configuration not stated),1.33 µM
15,CCCC(=O)NC(c1ccc(OC)cc1)c1ccc2cccnc2c1O (configuration not stated),1.18 µM
16,Oc1cc(-c2cccnc2)cc2cccnc12,9.27 µM
17,CCn1c(C)cc(C(=O)COC(=O)c2ccccc2[N+](=O)[O-])c1C,< 0.26 µM
18,Cc1nn(Cc2noc(C(=O)NC3CCC(C)CC3)n2)c(C)c1Br (configuration not stated),3.28 µM
19,O=C(c1ccccc1)C(CN1CCCCC1)c1ccccc1 (configuration not stated),2.41 µM
20,CCOc1ccc(-n2c(-c3ccccc3)c[n+]3c2CCC3)cc1,0.526 µM
21,CCN1CCN(Cc2ccc(NC(=O)c3cc(NC(=O)c4cc5cccc(OC)c5o4)cc(OC)c3)cc2C(F)(F)F)CC1,10.2 µM and 9.77 µM
22,O=C(c1ccc(F)cc1)C(CN1CCOCC1)c1ccccc1 (configuration not stated),17.6 µM

row,Structure (SMILES),AC50
1,COC(=O)/C(=C1/Oc2cc(C)oc(=O)c2S1)C(F)(F)F,4.64 µM
2,CCOC(=O)c1cnc(-n2nc(C)cc2C)nc1NC1CCCCC1,3.01 µM
3,O=C(NNC(=O)C1CCN(S(=O)(=O)c2ccc(Cl)cc2)CC1)c1ccccc1O,18.5 µM
4,COc1ccc(CCNc2ncnc3sc(C)cc23)cc1OC,< 0.26 µM
5,Oc1c(CN2CCCCC2)ccc2cccnc12,2.11 µM
6,Cc1ccc(Nc2nc(NCC3CC3)nc3ccsc23)c(C)c1,5.82 µM
7,OCc1ccc(O)c2ncccc12,1.66 µM
8,Cc1cc(CN2CCOCC2)c(O)c(C2(C)CCCCC2)c1,32.3 µM
9,CCOC(=O)N1CCN(CC(c2ccccc2)c2ccccc2)CC1,14.1 µM
10,O=C1[C@H]2[C@@H](c3ccc(F)cc3)N3C(=O)N(c4ccccc4)C(=O)[C@@]3(Cc3ccccc3)[C@H]2C(=O)N1C1CCCCC1,> 70 µM (inactive)
11,CC(C)CC(NC(=O)c1ccc(Cl)cc1)C(=O)OCC(=O)c1ccc2c(c1)NC(=O)CO2 (configuration not stated),4.01 µM
12,Cc1c(C(=O)Nc2ccc(F)c(F)c2)oc2ccc(S(=O)(=O)N3CCCCC3)cc12,7.05 µM
13,COc1cccc(CNc2ncnc3cc(Cl)ccc23)c1,3.73 µM
14,CCN(CC)S(=O)(=O)c1cc(NC(=O)CNc2cccc(S(=O)(=O)N3CCCC3)c2)ccc1C,0.648 µM
15,CCc1ccc(CN(C)C(=O)c2cc(COc3cccc4cnccc34)on2)cc1,1.92 µM
16,COc1ccc(CN(C)c2ccc(S(=O)(=O)N3CCN(C)CC3)cc2[N+](=O)[O-])cc1OC,0.691 µM
17,CC(NC(=O)c1cc(COc2ccc3ncccc3c2)on1)c1ccc(F)cc1 (configuration not stated),2.28 µM
18,O=S(=O)(/C(=C\c1ccc(C(F)(F)F)cc1)c1nc2ccccc2[nH]1)c1ccccc1,1.85 µM
19,CCCCCCCSc1cc(OC)c(CCNC)cc1OC,10.6 µM
20,C[C@H](O)C#Cc1ccc2c(c1)O[C@@H](CN(C)Cc1ccc(-c3ccccc3)cc1)[C@H](C)CN([C@@H](C)CO)S2(=O)=O,10.3 µM
21,CCCCC(=O)NC(c1cccc([N+](=O)[O-])c1)c1ccc2cccnc2c1O (configuration not stated),1 µM
22,CC(=O)c1cccc(-c2csc3ncnc(Sc4nnnn4C)c23)c1,4.72 µM

row,Structure (SMILES),AC50
1,C=CCNc1nc(N2CCCCC2)c(C#N)c2c1CN(Cc1ccccc1)CC2,16.8 µM
2,Cc1cc(/C=C2/SC(=S)N(c3cccc(Cl)c3)C2=O)c(C)n1-c1cccnc1,0.979 µM
3,COc1ccccc1NS(=O)(=O)c1cc(NC(=O)c2ccc(Cl)nc2)ccc1Cl,3.12 µM
4,CCOc1ccccc1NC(=O)c1nc(S(=O)(=O)Cc2ccccc2)ncc1Cl,0.376 µM
5,O=C(COC(=O)c1n[nH]c2ccccc12)Nc1ccc(S(=O)(=O)N2CCCC2)cc1,5.33 µM
6,O=c1c2ccccc2cnn1-c1nc2ccccc2[nH]1,1.33 µM
7,CN(C)CCN1C(=O)c2cccc3cc([N+](=O)[O-])cc(c23)C1=O,1.11 µM
8,O=C(Nc1ccc(N2CCN(C(=O)c3ccco3)CC2)c(Cl)c1)c1cc2ccccc2o1,5 µM
9,CCCCCCCCOC(=O)c1cc([N+](=O)[O-])c(Sc2ncnc3nc[nH]c23)c([N+](=O)[O-])c1,2.81 µM
10,Cc1onc(-c2ccccc2Cl)c1C(=O)N(C)C1CCCCC1,2.74 µM
11,COC(=O)c1ccc(NC(=O)c2nc(S(=O)(=O)Cc3cccc(C)c3)ncc2Cl)cc1,1.35 µM
12,O=C(Nc1ccc(-c2nc3ccccc3o2)cc1)c1ccc(N2CCOCC2)c([N+](=O)[O-])c1,3.35 µM
13,COc1ccc(CS(=O)(=O)/C(Cl)=C(/Cl)C(=O)Nc2ccc(OC)nc2)cc1,< 0.26 µM
14,CS(=O)(=O)c1nc(-c2ccccc2)cc(C(F)(F)F)n1,1.53 µM
15,Cc1ccn2cc(-c3ccc(O)c(O)c3)nc2c1,2.44 µM
16,O=C(Nc1ccc(-c2nc3ncccc3o2)cc1)c1ccc([N+](=O)[O-])o1,1.34 µM
17,COc1cc(NS(=O)(=O)c2ccc(C)cc2C)cc(OC)c1OC,4.95 µM
18,CCS(=O)(=O)c1ncc(Cl)c(C(=O)Nc2ccc(S(=O)(=O)N3CCCC(C)C3)cc2)n1 (configuration not stated),< 0.26 µM
19,CCCC(=O)NC(c1ccc(N(C)C)cc1)c1ccc2cccnc2c1O (configuration not stated),0.916 µM
